Source: the METLIN SMRT retention time set (Domingo-Almenara et al. 2019)

Assay: gradient 5% acetonitrile 3 min, to 50% in 2 min, to 85% in 15 min, held 3 min, 100 µL/min
Conditions: column: Zorbax Extend-C18 2.1 x 50 mm; eluents: water / acetonitrile, 0.1% formic acid
In short: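 Retention times come from adduct peaks that were picked computationally and then checked by hand. The standards, pure and pooled in mixtures of ~100 molecules, were run on a Zorbax Extend-C18 column (2.1 × 50 mm, 1.8 μm) at 100 μL/min with water and acetonitrile, each with 0.1% formic acid. Detection was by quadrupole time-of-flight mass spectrometry in positive and negative ionization mode, with a dead volume of 40 μL and a dwell volume of 900 μL.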

RP-LC retention time [s]	Structure (SMILES)
990	Cc1nn(CC(=O)NCc2ccco2)c(=O)c2c(-n3cccc3)n(-c3ccc(Cl)cc3)nc12
656	Cc1nnc2c(=O)n(CC(=O)NCc3cccc(F)c3)c3cccnc3n12
585	CCN1CCC2(CC1)CN(Cc1cccc(Cl)c1)Cc1ccccc1O2
883	CCc1nc(-c2c(C)cc(C)nc2NC(=O)c2ccc(C)c(F)c2)no1
594	Cc1cc(N2CCN(C)CC2)nc2ccc(NC(=O)Nc3ccc(F)cc3F)cc12
848	COc1cccc(CC(=O)Nc2ccc(-c3nc(Cn4cccn4)c(C)o3)cc2)c1
805	CCc1nnc(-c2cc(C)n(CC(=O)NC(C)c3ccccc3)c2C)o1 (stereo unspecified)
736	Nc1cc(C2CCN(C(=O)Nc3ccc(Br)cc3F)CC2)no1
919	CS(=O)(=O)N1CCC(C(=O)NCCc2ccccc2)Oc2ccc(Cl)cc21 (stereo unspecified)
730	O=C(NCC(c1cccnc1)N1CCc2ccccc21)C(=O)Nc1ccc2c(c1)OCCO2 (stereo unspecified)
641	CNC(=O)C1CCCN(c2nc3ncn(CC(=O)Nc4cc(F)ccc4F)c(=O)c3s2)C1 (stereo unspecified)
725	Cc1ccc(F)cc1NC(=O)CN1CCC(c2nc(-c3cccs3)no2)CC1
947	Nc1ccc(Nc2nc(-c3ccc(Cl)cc3)cs2)cc1
845	CCOc1ccc(CCNC(=O)Cn2ncc3ccccc32)cc1OCC
673	COc1ccc(N2CCN(C(=O)COc3ccc(NC(=O)C4CC4)cn3)CC2)cc1
683	O=C(NC1CCc2ccccc21)C1CCN(Cc2noc(-c3ccc(F)cc3)n2)CC1 (stereo unspecified)
722	O=C(Cc1c[nH]c2ccccc12)N1CCCN(c2cc(-c3ccc(Br)cc3)[nH]n2)CC1
1050	CCn1c(=O)c2ccccc2n(Cc2nc(-c3ccc(OC(C)C)cc3)no2)c1=O
859	COc1ccc(CNC(=O)c2nnn(Cc3nc(-c4ccccc4)oc3C)c2N)cc1OC
688	COc1ccc(C(=O)CC2(O)C(=O)Nc3c(C)cccc32)cc1OC (stereo unspecified)
940	CCn1c(=O)sc2cc(S(=O)(=O)N3CCC(C(=O)Nc4ccc(C)cc4)CC3)ccc21

RP-LC retention time [s]	Structure (SMILES)
767	CC(=O)NCCn1c(SCC(=O)OCc2ccccc2)nc2ccccc2c1=O
579	CCOC(=O)c1c(C)[nH]c(CCC(=O)NCCN2CCN(C)CC2)c1C
681	C=CCN1CCN(c2nc3cc(C(=O)OC)ccc3c(=O)n2-c2ccc(Cl)cc2)CC1
812	COc1cccc(Cc2nc(Cn3c(C)nc4ccccc4c3=O)no2)c1
607	COCCCNC(=O)C1c2cc(OC)c(OC)cc2C(=O)N(C)C1c1ccc(SC)cc1 (stereo unspecified)
940	Cc1cnn(Cc2nc(-c3ccc(NC(=O)c4ccc(C)s4)cc3)oc2C)c1
801	CCOc1ccc(NC(=O)C2CCN(S(=O)(=O)c3ccc4c(c3)NC(=O)CO4)CC2)cc1
677	CCN1CCN(S(=O)(=O)c2ccc(Cl)c(-c3nnc(-c4ccc(OC)cc4)o3)c2)CC1
898	CN(CCc1noc(COc2ccc(Cl)cc2Cl)n1)C(=O)c1ccco1
892	Cc1ccc(C)c(C(=O)NCCc2cn(CC(C)C)c3ncccc23)c1
552	O=C(CSc1ccncc1)NCc1cc(-c2ccco2)on1
920	Cc1ccc(-c2noc(Cn3ccn(-c4cccc(Cl)c4)c(=O)c3=O)n2)cc1
974	Cc1cc(C)c(S(=O)(=O)N2CCN(Cc3cccc(F)c3)C3(CCOCC3)C2)cc1C
631	Cc1ccc(CNC(=O)C2CCN(c3cncnc3N3CCOCC3)CC2)cc1
645	CC1Cc2ccccc2N1C(=O)C1CCN(C(=O)c2cc(-c3ccncc3)n[nH]2)CC1 (stereo unspecified)
581	CN1CCc2nnc(C3CCCN3C(=O)Nc3ccc(Cl)cc3F)n2CC1 (stereo unspecified)
639	CCN(CC)S(=O)(=O)c1ccc2c(c1)cc(C(=O)NCCN(C)C)n2C
954	CN(C1CCCCC1)S(=O)(=O)N1CCCC(C(=O)NCc2ccc3c(c2)OCO3)C1 (stereo unspecified)
783	Cc1ccc(Cl)cc1NC(=O)Cn1cnc2nc3c(cc2c1=O)CCCC3
645	CC1=C(C(=O)OCCC#N)C(c2ccccc2F)NC(=O)N1 (stereo unspecified)
798	Cc1onc(-c2cccnc2)c1C(=O)Nc1ccc(Br)cc1F

RP-LC retention time [s]	Structure (SMILES)
687	Cc1sc(-n2c(C)c3c(C)nnc(C)c3c2C)nc1-c1ccccc1
912	CCOc1ccc2c(n1)CCN(C(=O)Nc1cc(C)cc(C)c1)C2
1050	O=c1c2oc3ccccc3c2ncn1Cc1nc(-c2ccc(F)c(Cl)c2)no1
1150	Cc1ccc(Nc2c(-c3ccc(Cl)cc3)nc3cnccn23)cc1Cl
722	COc1cccc(OC)c1C(=O)Nc1ccc2c(c1)CCCN2C(=O)C1CC1
738	CC(C)OCCCNC(=O)CN1C(=O)CCn2nc(-c3cn(C)c4ccccc34)cc21
778	Cc1cccc(CC(=O)N2C[C@@H]3C[C@H]2C[C@@H]3NC(=O)c2cccs2)c1
1150	Cc1cc(C)cc(NC(=O)C2CCN(c3nccnc3Sc3cccc(C)c3)CC2)c1
607	CC(C)(C)C(=O)N1CCC2(CC1)CN(Cc1ccccc1)CC2CO (stereo unspecified)
1040	CCc1nc(-c2csc(S(=O)(=O)N3CCCC(C(=O)Nc4cccc(Cl)c4)C3)c2)no1 (stereo unspecified)
609	CS(=O)(=O)N1CCC(CNC(=O)C(=O)Nc2ccon2)CC1
949	Cc1ccc(NC(=O)c2cc(C(C)C)n(C3CCS(=O)(=O)C3)n2)cc1C (stereo unspecified)
751	CCC1CN(C(=O)N2CCC(C(=O)N3CCN(C(=O)c4ccco4)CC3)CC2)c2ccccc2O1 (stereo unspecified)
740	O=C(NCCc1c[nH]c2ccccc12)c1csc(NS(=O)(=O)c2cccs2)n1
1300	Cc1cccc(-c2nc(Cn3nnc(-c4nc(-c5cccc(Cl)c5)no4)c3C)c(C)o2)c1
1020	CCCS(=O)(=O)c1nc2ccc(NS(=O)(=O)c3ccc(F)c(Cl)c3)cc2s1
732	Cc1ccccc1NC(=O)N1CCC(c2nc(C(=O)N3CCCC3)c(C)o2)CC1
995	O=C(CN1C(=O)CCCc2cc(S(=O)(=O)N3CCCCC3)ccc21)Nc1ccc(Cl)cc1F
858	CCN1c2cc(Cl)ccc2C(=O)NC12CCN(C(=O)Nc1ccccc1OC)CC2
954	Cc1cnn(Cc2nc(-c3ccc(NC(=O)Cc4ccccc4C)cc3)oc2C)c1
965	CCNC(=O)N(CCCOC)CC(=O)N1CCc2sccc2C1COc1ccc(Cl)c(C)c1 (stereo unspecified)

RP-LC retention time [s]	Structure (SMILES)
1170	Fc1ccc(C2Cn3nnc(-c4nc(-c5ccccc5Cl)no4)c3CO2)cc1 (stereo unspecified)
818	COc1ccc(C2(C)OC(c3cc(C)nc4ccccc34)=NN2C(C)=O)c(OC)c1 (stereo unspecified)
888	Cc1ccc2c(c1)N(C(=O)Cn1cnc3nc4c(cc3c1=O)CC(C)CC4)CCO2 (stereo unspecified)
659	CCN(CC)c1ccc(NC(=O)C2CCCN(C(=O)c3cc(C)cc(C)c3)C2)c(C)c1 (stereo unspecified)
924	CCCCOc1ccc(CNC(=O)CN2CC=C(c3cnn(-c4ccc(C)c(C)c4)c3)CC2)cc1
593	O=C(c1cccc(Cl)c1)N1CCN(c2cnn3c(C4CC4)nnc3c2)CC1
702	Cc1ccc(S(=O)(=O)N2CCC(CN3CCCC(C)C3)CC2)cc1F (stereo unspecified)
805	CC(=O)N(CC(=O)N1CCc2sccc2C1COc1ccc(F)cc1)C(C)C (stereo unspecified)
972	CCOc1ccc(N2CC(c3nc(-c4ccc(OC)cc4)no3)CC2=O)cc1 (stereo unspecified)
714	CCn1cc(S(=O)(=O)N2CCC[C@H]2c2nc(-c3ccc(F)cc3)n[nH]2)cn1
687	O=C(NCc1ccccc1)c1csc(Nc2ccncn2)n1
869	Cc1ccccc1CN1N=C(C(=O)N2CCCC2)S(=O)(=O)c2ccccc21
762	CS(=O)(=O)N1CCC(C(=O)Nc2nnc(SCc3cc(F)ccc3F)s2)CC1
637	Cc1cc(N2CCN(C(=O)Nc3ccc4c(c3)OCO4)CC2)nc(N2CCCC2)n1
727	CC(=O)c1ccc(NC(=O)C(C)Oc2ccc(=O)n(-c3ccc(F)cc3)n2)cc1 (stereo unspecified)
1190	Cc1nc(N2CCN(c3ccccc3F)CC2)nc2c1C(=O)CC(c1ccccc1O)C2 (stereo unspecified)
559	O=C(c1cccnc1)N1CCCN(c2nnc3ccc(Cl)cn23)CC1
1000	Cc1cccc(S(=O)(=O)N2Cc3ccccc3CC2C(=O)NCc2ccco2)c1 (stereo unspecified)
687	CC(=O)N1CCCSc2ccc(S(=O)(=O)N3CCCC(CN4CCc5ccccc5C4)C3)cc21 (stereo unspecified)
709	CC1CCc2c(N3CCC(O)CC3)c(F)cc3c(=O)c(C(=O)O)cn1c23 (stereo unspecified)

Structure (SMILES)	RP-LC retention time [s]
CN1C(=O)NC2NCN(C)C2C1=O (stereo unspecified)	576
O=C(C1CCC1)N1[C@H]2CC[C@@H]1c1cnc(-c3ccc(F)cc3)nc1C2	955
O=[N+]([O-])c1ccc2nc(N3CCNCC3)ccc2c1	641
